Test results: patent publication US20080214666A1, “Products and Methods Related to Mono-Methyl Branched-Chain Fatty Acids” (The Regents of the University of Colorado, priority 2004, published 2008)
Entries after “also recorded” stand apart in the source; their conditions may differ.

What was measured:
elo-5(RNAi) worms [1] = assay: GC analysis of FA composition in elo-5(RNAi) worms grown on supplemented plates; format: in vivo, Caenorhabditis elegans; details: for elongation of the supplement to C17ISO: added as food supplements; for incorporation of the supplement into lipids and its elongation (GC): elo-5(RNAi) worms on supplemented plates
Description: A mixed population of well-fed worms were washed off the plates with water, rinsed 3-4 times, and, after aspirating away water, were frozen at −80° C. Fatty Acid Methyl Esters and lipid extraction were performed as described (Miquel and Browse 1992). GC was performed on the HP6890N (Agilent) equipped with a DB-23 column (30 m×250 μm×0.25 μm) (Kniazeva, Sieber et al. 2003). Each experiment was repeated at least five times. Average values and standard deviations were then calculated for each of the compounds in the experiments.
(§1) Ninety μl of the 4 mM solution of FA (Sigma) in 1% NP40 or 10% DMSO was dropped on the side of the bacterial lawn that contained either elo-5 dsRNA-producing plasmid or the control HT115 vector. Two synchronized young adults were plated and their progeny was scored 4 and 5 days later. Each experiment was performed in at least 30 replicates. For recovering elo-5(RNAi) worms from L1 arrest, wild type adults were placed on the elo-5(RNAi) plates. Four days later, their progeny was removed and eggs of the next generation were left on the plates. Hatched L1 were kept for two or four days before transferring as agar chunks to new elo-5(RNAi) plates. FA supplements were added to spots next to the chunks. Ten plates were prepared for each FA supplement. Control plates contained no supplements. […] Neither C15 nor C17 mmBCFA added to let-418(RNAi) plates modified the expected phenotype.

mouse C2C12 (myoblasts) = assay: Elongation of exogenous short chain mmBCFA in cultured mouse cells; format: cell-based
[2] = Elongation of exogenous short chain mmBCFA in cultured human cells; format: cell-based
elo-5(gk208) = assay: Rescue, growth and maturation of the elo-5(gk208) mutant on supplemented plates; format: in vivo, C. elegans
elo-5(RNAi) worms [3] = assay: Phenotype rescue of elo-5(RNAi) worms using FA supplements; format: in vivo, Caenorhabditis elegans; details: for plates on which the supplement rescued the elo-5 RNAi defects: FA supplement (90 μl of 4 mM) on elo-5(RNAi) plates, progeny scored 4 and 5 days later, rescued/total plates; for rescue of mmBCFA deficiency: added as food supplements; for plates with partial rescue of the elo-5 RNAi defects: FA supplement on elo-5(RNAi) plates, partially rescued/total plates; for rescue of elo-5(RNAi) phenotype: animals grown on elo-5 RNAi plates with supplement or mmBCFA-producing bacteria
Description: The RNAi feeding strain was E. coli HT115 transformed with either empty pPD129.36 vector (controls) or with dsRNA-producing constructs. Unless stated differently, wild type N2 Bristol animals were plated as synchronized adults.
Ninety μl of the 4 mM solution of FA (Sigma) in 1% NP40 or 10% DMSO was dropped on the side of the bacterial lawn that contained either elo-5 dsRNA-producing plasmid or the control HT115 vector. Two synchronized young adults were plated and their progeny was scored 4 and 5 days later. Each experiment was performed in at least 30 replicates. For recovering elo-5(RNAi) worms from L1 arrest, wild type adults were placed on the elo-5(RNAi) plates. Four days later, their progeny was removed and eggs of the next generation were left on the plates. Hatched L1 were kept for two or four days before transferring as agar chunks to new elo-5(RNAi) plates. FA supplements were added to spots next to the chunks. Ten plates were prepared for each FA supplement. Control plates contained no supplements.

N2 = assay: Growth and maturation of wild type N2 on supplemented plates; format: in vivo, C. elegans
human cancer = details: Yang, Liu et al. 2000; cited from earlier work
[4] = test system: elo-5(RNAi) L1-arrested worms; assay: Recovery of elo-5(RNAi) worms from L1 arrest with FA supplements; format: in vivo, Caenorhabditis elegans
Description: as §1

lpd-1(RNAi) animals = assay: Rescue of lpd-1(RNAi) feeding defects by supplement; format: in vivo, C. elegans; details: supplement added to the plates
[5] = test system: mmBCFA deficient early L1 larvae; assay: Feeding of mmBCFA deficient early L1 larvae on plates without bacteria; format: in vivo, C. elegans; details: supplements on the plates without bacteria

COC(=O)CCCCCCCCCC(C)C [C13ISO-methyl ester]
elongation of the supplement to C17ISO (elo-5(RNAi) worms [1]): can be efficiently elongated to C17ISO

CC(C)CCCCCCCCCC(=O)O [C13ISO]
elongation into C15ISO and C17ISO in vitro (mouse C2C12 (myoblasts)): able to elongate | elongation into C15ISO and C17ISO in vitro ([2]; RIN-M5F (pancreatic beta cells)): able to elongate | elongation into C15ISO and C17ISO in vitro ([2]; SY-5Y (neuroblastoma)): able to elongate | egg laying and survival on the second day of adulthood (elo-5(gk208); elo-5(gk208), 0.75 mM and 1 mM): fail to lay eggs and die a few days later | growth rate (elo-5(gk208); elo-5(gk208), 0.75 mM and 1 mM): grow as fast as N2 without supplements | developmental stage on forth day after hatching (elo-5(gk208); elo-5(gk208), 10 mM): remain at L4 or young adults stages | effect on growth and maturation (elo-5(gk208); elo-5(gk208), 2.5-10 mM): slowing at the L4 stage accompanied by a delay in the adult maturation | brood size (elo-5(gk208); elo-5(gk208), high concentrations (2.5-10 mM)): maintain wild type brood size | animals that reach adulthood and have viable progeny (elo-5(gk208); supplement concentration above 0.75 mM): 100% | rescue from elo-5(gk208) phenotype (elo-5(gk208); supplement concentration range 0-0.5 mM): no rescue; also recorded: does not rescue | plates on which the supplement rescued the elo-5 RNAi defects (elo-5(RNAi) worms [3]): 0/30 | rescue of mmBCFA deficiency (elo-5(RNAi) worms [3]): rescue mmBCFA deficiency | growth rate (N2; N2, 0.75 mM and 1 mM): grow as fast as N2 without supplements | developmental stage on forth day after hatching (N2; N2, 10 mM): remain at L4 or young adults stages | effect on growth and maturation (N2; N2, 2.5-10 mM): slowing at the L4 stage accompanied by a delay in the adult maturation | brood size (N2; N2, high concentrations (2.5-10 mM)): maintain wild type brood size | ability to modulate growth rate between L4 and adult stage (N2; dietary supplement): modulate growth rate between L4 and adult stage

CC(C)CCCCCCCCCCCC(=O)O [C15ISO, 13-methyl myristic acid]
incorporation of the supplement into lipids and its elongation (GC) (elo-5(RNAi) worms [1]): no accumulation of C15ISO or its elongation to C17ISO was detectable | plates with partial rescue of the elo-5 RNAi defects (elo-5(RNAi) worms [3]): 23/38 | rescue of mmBCFA deficiency (elo-5(RNAi) worms [3]): rescue mmBCFA deficiency | rescue of elo-5(RNAi) phenotype (elo-5(RNAi) worms [3]): partially rescued | effect on human cancer (human cancer): growth inhibitor of human cancer where it selectively induces apoptosis

COC(=O)CCCCCCCCCCCC(C)C [C15ISO-methyl ester]
elongation of the supplement to C17ISO (elo-5(RNAi) worms [1]): can be efficiently elongated to C17ISO

CCC(C)CCCCCCCCCCC(=O)O (stereo not shown) [C15anteISO]
plates with partial rescue of the elo-5 RNAi defects (elo-5(RNAi) worms [3]): 20/28

CCCCCCCCCCCCCCCC(=O)O [C16:0, palmitic acid, reference compound]
plates on which the supplement rescued the elo-5 RNAi defects (elo-5(RNAi) worms [3]): 0/30

CCCCCC/C=C\CCCCCCCC(=O)O [C16:1 n7, reference compound]
plates on which the supplement rescued the elo-5 RNAi defects (elo-5(RNAi) worms [3]): 0/30

CCCCCCCCCCCCCCCCC(=O)O [C17:0, reference compound]
plates on which the supplement rescued the elo-5 RNAi defects (elo-5(RNAi) worms [3]): 0/30

CC(C)CCCCCCCCCCCCCC(=O)O [C17ISO, 15-methyl hexadecanoic acid]
arrested L1 rescued to full growth and proliferation ([4]; four-day-old L1): ~1% | arrested L1 rescued to full growth and proliferation ([4]; two day-arrested L1): about 50% | growth of homozygous elo-5(gk208) on supplemented plates (elo-5(gk208); plates supplemented or seeded): grew normally; also recorded: grew without any obvious morphological defects | incorporation of the supplement into lipids and its elongation (GC) (elo-5(RNAi) worms [1]): significantly incorporated into lipids | plates on which the supplement rescued the elo-5 RNAi defects (elo-5(RNAi) worms [3]): 52/60 | rescue of mmBCFA deficiency (elo-5(RNAi) worms [3]): rescue mmBCFA deficiency | rescue of elo-5(RNAi) phenotype (elo-5(RNAi) worms [3]): fully rescued | rescue of lpd-1 RNAi feeding defects (slow growth, morphological abnormalities, egg-laying defects) (lpd-1(RNAi) animals): did not significantly rescue these defects | development of early L1 arrested larvae [5]: able to elongate and proceed to the mid-L1 stage

CCC(C)CCCCCCCCCCCCC(=O)O (stereo not shown) [C17anteISO, 14-methyl hexadecanoic acid]
arrested L1 rescued to full growth and proliferation ([4]; four-day-old L1): ~1% | arrested L1 rescued to full growth and proliferation ([4]; two day-arrested L1): about 50% | incorporation of the supplement into lipids and its elongation (GC) (elo-5(RNAi) worms [1]): significantly incorporated into lipids | plates on which the supplement rescued the elo-5 RNAi defects (elo-5(RNAi) worms [3]): 58/60 | rescue of elo-5(RNAi) phenotype (elo-5(RNAi) worms [3]): fully rescued

CCCCC/C=C\C/C=C\C/C=C\CCCCC(=O)O [C18:3 n6, reference compound]
plates on which the supplement rescued the elo-5 RNAi defects (elo-5(RNAi) worms [3]): 0/30

CC(C)CCCCCCCCCCCCCCC(=O)O [C18ISO, reference compound]
plates on which the supplement rescued the elo-5 RNAi defects (elo-5(RNAi) worms [3]): 0/30

CC(C)CCCCCCCCCCCCCCCC(=O)O [C19ISO, reference compound]
plates on which the supplement rescued the elo-5 RNAi defects (elo-5(RNAi) worms [3]): 0/30

CC(C)CCCC(C)CCCC(C)CCCC(C)CC(=O)O (stereo not shown) [phytanic acid, reference compound]
plates on which the supplement rescued the elo-5 RNAi defects (elo-5(RNAi) worms [3]): 0/30
